Results from patent publication US12258326B2, “Pyrazole derivative and harmful organism-controlling agent” (KUMIAI CHEMICAL INDUSTRY CO., LTD., priority 2018, dated 2025).
Like-named read-outs stand apart in the source and are kept apart here.

What was measured:
Assay type in all cases: in vivo
Plutella xylostella = Plutella xylostella killing test; conditions: 144 h, active ingredient 500 ppm, dipped cabbage leaf, second instar larvae, after 6 days, 25° C., read-out: insect mortality
Procedure: (§1) The water-dispersible powder prepared in accordance with Formulation example 2 was diluted in water so that the concentration of the active ingredient was 500 ppm. A cabbage leaf was dipped in this liquid agent, and air-dried, and then put into a plastic cup. Ten second instar larvae of Plutella xylostella were released in the cup, and the cup was lidded. Then, the cup was placed in a thermostatic chamber at 25° C., and the number of dead insects was examined after 6 days, and the insect mortality was determined by the calculation formula of numerical formula 1. The test was conducted singly.

Helicoverpa armigera = Helicoverpa armigera killing test; conditions: 144 h, active ingredient 500 ppm, dipped cabbage leaf, newly hatched larvae, after 6 days, 25° C., read-out: insect mortality
Procedure: as §1, with “Five newly hatched” for “Ten second instar”, “Helicoverpa armigera” for “Plutella xylostella”, “in duplicate.” for “singly.”

Aphis gossypii = Aphis gossypii killing test; conditions: read-out: insect mortality
Procedure: The water-dispersible powder prepared in accordance with Formulation example 2 was diluted in water so that the concentration of the active ingredient was 500 ppm. A nursery plant of cucumber preliminarily inoculated with nymphs of Aphis gossypii was dipped in this liquid agent, and air-dried. The nursery plant of cucumber after the treatment was placed in a thermostatic chamber at 25° C., and the number of live insects was counted after 3 days, and the insect mortality was determined by the calculation formula of numerical formula 1. The test was conducted singly.

Nilaparvata lugens = Nilaparvata lugens killing activity test; conditions: 144 h, active ingredient 500 ppm, dipped paddy, second instar larvae, after 6 days, 25° C., read-out: insect mortality
Procedure: The water-dispersible powder prepared in accordance with Formulation example 2 was diluted in water so that the concentration of the active ingredient was 500 ppm. Paddy was dipped in this liquid agent, and then put into a plastic cup. Ten second instar larvae of Nilaparvata lugens were released in the plastic cup, and the cup was lidded, and placed in a thermostatic chamber at 25° C. After 6 days, the number of live insects was counted, and the insect mortality was determined by the calculation formula of numerical formula 1. The test was conducted singly.

[1] = active ingredient 500 ppm, dipped cucumber nursery plant inoculated with nymphs, after 3 days, 25° C.

## Cc1ccccc1-c1cn(-c2cccnc2)nc1C(N)=O [A-0020, 1-(pyridine-3-yl)-4-(2-methylphenyl)-1H-pyrazole-3-carboxamide]
Plutella xylostella
  mortality at 500 ppm: ≥ 50%
Helicoverpa armigera
  mortality at 500 ppm: ≥ 50%
Aphis gossypii; [1]
  mortality at 500 ppm: ≥ 50%
Nilaparvata lugens
  mortality at 500 ppm: ≥ 50%

## CCOC(=O)c1nn(-c2cccnc2)cc1-c1ccccc1C(F)(F)F [C-0044, Ethyl 1-(pyridine-3-yl)-4-(2-(trifluoromethyl)phenyl)-1H-pyrazole-3-carboxylate]
Aphis gossypii; [1]
  mortality at 500 ppm: ≥ 50%
Nilaparvata lugens
  mortality at 500 ppm: ≥ 50%

## COc1cc(Cl)ccc1-c1cn(-c2cccnc2)nc1C(N)=O [A-0634, 4-(4-chloro-2-methoxyphenyl)-1-(pyridine-3-yl)-1H-pyrazole-3-carboxamide]
Plutella xylostella
  mortality at 500 ppm: ≥ 50%
Helicoverpa armigera
  mortality at 500 ppm: ≥ 50%
Aphis gossypii; [1]
  mortality at 500 ppm: ≥ 50%
Nilaparvata lugens
  mortality at 500 ppm: ≥ 50%

## Cc1ccccc1-c1cn(-c2cccnc2)nc1C(N)=S [A-8646, 1-(pyridine-3-yl)-4-(2-methylphenyl)-1H-pyrazole-3-carbothioamide]
Plutella xylostella
  mortality at 500 ppm: ≥ 50%
Nilaparvata lugens
  mortality at 500 ppm: ≥ 50%

## Cc1ccncc1-c1cn(-c2cccnc2)nc1C(=O)O [F-0108, 4-(4-methylpyridine-3-yl)-1-(pyridine-3-yl)-1H-pyrazole-3-carboxylic acid]
Plutella xylostella
  mortality at 500 ppm: ≥ 50%
Helicoverpa armigera
  mortality at 500 ppm: ≥ 50%

## CCOC(=O)c1nn(-c2cccnc2)cc1-c1cnccc1C [D-0108, Ethyl 4-(4-methylpyridine-3-yl)-1-(pyridine-3-yl)-1H-pyrazole-3-carboxylate]
Plutella xylostella
  mortality at 500 ppm: ≥ 50%
Helicoverpa armigera
  mortality at 500 ppm: ≥ 50%
Aphis gossypii; [1]
  mortality at 500 ppm: ≥ 50%

## CCOC(=O)c1nn(-c2cccnc2)cc1OS(=O)(=O)C(F)(F)C(F)(F)C(F)(F)C(F)(F)F [D-0008, Ethyl 4-{[(nonafluorobutyl)sulfonyl]oxy}-1-(pyridine-3-yl)-1H-pyrazole-3-carboxylate]
Aphis gossypii; in Cucumis sativus
  mortality at 500 ppm: ≥ 50%

## CCOC(=O)c1nn(-c2cccnc2)cc1-c1ncccc1C [D-0035, Ethyl 4-(3-methylpyridine-2-yl)-1-(pyridine-3-yl)-1H-pyrazole-3-carboxylate]
Plutella xylostella
  mortality at 500 ppm: ≥ 50%
Helicoverpa armigera
  mortality at 500 ppm: ≥ 50%
Aphis gossypii; [1]
  mortality at 500 ppm: ≥ 50%
Nilaparvata lugens
  mortality at 500 ppm: ≥ 50%

## COCC(=O)NC(=O)c1nn(-c2cccnc2)cc1-c1ccccc1C [A-4808, N-(2-methoxyacetyl)-1-(pyridine-3-yl)-4-(2-methylphenyl)-1H-pyrazole-3-carboxamide]
Aphis gossypii; [1]
  mortality at 500 ppm: ≥ 50%
Nilaparvata lugens
  mortality at 500 ppm: ≥ 50%

## CCOC(=O)c1nn(-c2cccnc2)cc1I [D-0003, ethyl 4-iodo-1-(pyridine-3-yl)-1H-pyrazole-3-carboxylate]
Helicoverpa armigera
  mortality at 500 ppm: ≥ 50%
Aphis gossypii; [1]
  mortality at 500 ppm: ≥ 50%

## NC(=O)c1nn(-c2cccnc2)cc1-c1ccccc1C(F)(F)F [A-0044, 1-(pyridine-3-yl)-4-[2-(trifluoromethyl)phenyl]-1H-pyrazole-3-carboxamide]
Aphis gossypii; [1]
  mortality at 500 ppm: ≥ 50%

## Cc1cccnc1-c1cn(-c2cccnc2)nc1C(N)=O [B-0027, 4-(3-methylpyridine-2-yl)-1-(pyridine-3-yl)-1H-pyrazole-3-carboxamide]
Plutella xylostella
  mortality at 500 ppm: ≥ 50%
Helicoverpa armigera
  mortality at 500 ppm: ≥ 50%
Aphis gossypii; [1]
  mortality at 500 ppm: ≥ 50%
Nilaparvata lugens
  mortality at 500 ppm: ≥ 50%

## Cc1ccncc1-c1cn(-c2cccnc2)nc1C(N)=O [B-0100, 4-(4-methylpyridine-3-yl)-1-(pyridine-3-yl)-1H-pyrazole-3-carboxamide]
Plutella xylostella
  mortality at 500 ppm: ≥ 50%
Helicoverpa armigera
  mortality at 500 ppm: ≥ 50%
Nilaparvata lugens
  mortality at 500 ppm: ≥ 50%

## CCOC(=O)c1nn(-c2cccnc2)cc1-c1ccc(Cl)cc1OC [C-0634, Ethyl 4-(4-chloro-2-methoxyphenyl)-1-(pyridine-3-yl)-1H-pyrazole-3-carboxylate]
Plutella xylostella
  mortality at 500 ppm: ≥ 50%

## Cc1ccccc1-c1cn(-c2ccc[n+]([O-])c2)nc1C(N)=O [A-8862, 3-[3-carbamoyl-4-(2-methylphenyl)-1H-pyrazole-1-yl]pyridine-1-oxide]
Aphis gossypii; [1]
  mortality at 500 ppm: ≥ 50%
Nilaparvata lugens
  mortality at 500 ppm: ≥ 50%
